One assay deals with S. aureus. The assay is described as follows: Periprosthetic joint infection mouse model, implant biofilm CFU burden. In kind it is in vivo. The conditions noted are these: intraperitoneal delivery, versus untreated control mice. The method, then:
Periprosthetic joint infection was modeled in a mouse by placing an intra-articular K-wire through the medullary canal of the proximal femur followed by intra-articular inoculation with S. aureus. Animals were treated systemically with an intraperitoneal delivery of cefazolin, rifampin, or the exemplary peptide of SEQ ID NO:1. Intraperitoneal delivery was chosen due to technical difficulties associated with intravenous delivery. Implant sonication and proximal femur homogenate were used to quantify viable bacteria.

For assay [1], the system named is P. aeruginosa strains (PAO1 and 2 clinical isolates). The class given is cell-based. The conditions noted are these: three P. aeruginosa strains, 0.5×MIC exposure. The source says:
Each antibiotic was compared for their propensity to select for bacterial resistance phenotypes in vitro.

The test system of assay [2] is Acinetobacter baumannii ATCC 19606 (non-MDR). In kind it is cell-based. The conditions noted are these: ATCC 19606. How it is done: (§1) Each peptide was formulated in PBS buffer prior to testing. Peptides of SEQ ID NO:5 and SEQ ID NO:8 were brought up in 100% DMSO with 0.002% polysorbate-80 at 1.28 mg/mL (40× the highest final test concentration of 32 mcg/mL). Final test concentration of DMSO was 2.5% in the assay at the first dilution for those two compounds.
(§2) Mueller Hinton II broth (MHB II; BD; Lot Nos. 6258541 and 7143896) was used for MIC testing of aerobic organisms. 0.002% polysorbate 80 (P80) was added to the test medium.
(§3) MIC values were determined using a broth microdilution procedure described by CLSI (1, 3). Automated liquid handlers (Multidrop 384, Labsystems, Helsinki, Finland; Biomek 2000 and Biomek FX, Beckman Coulter, Fullerton Calif.) were used to conduct serial dilutions and liquid transfers.
(§4) To prepare the drug mother plates, which would provide the serial peptide dilutions for the replicate daughter plates, the wells of columns 2-12 of standard 96-well microdilution plates (Costar 3795) were filled with 150 µl of the designated diluent for each row of peptide.
(§5) The test articles and comparator compounds ([…] at 40× the highest concentration to be tested) were dispensed into the appropriate wells in column 1. The Biomek 2000 was then used to make 2-fold serial dilutions in the mother plates from column 1 through column 11. The wells of Column 12 contained no drug and served as the organism growth control wells for the assay.
(§6) The daughter plates were loaded with 185 μL per well of MHB II using the Multidrop 384. The daughter plates were completed on the Biomek FX instrument which transferred 5 uL of peptide solution from each well of a mother plate to the corresponding well of each daughter plate in a single step. A standardized inoculum of each test organism was prepared per CLSI methods. The inoculum for each organism was dispensed into sterile reservoirs divided by length (Beckman Coulter), and the Biomek 2000 was used to inoculate the plates. Daughter plates were placed on the Biomek 2000 work surface in reverse orientation so that inoculation took place from low to high drug concentration.
(§7) Plates were stacked 3-4 high, covered with a lid on the top plate, placed in plastic bags, and incubated at 35° C. for 16 to 20 hrs. Following incubation, the microplates were removed from the incubator and viewed from the bottom using a plate viewer. […] The MIC was read and recorded as the lowest concentration of peptide that inhibited visible growth of the organism.

The test system of assay [3] is Enterococcus faecalis ATCC 29212 (VSE; QC). The class given is cell-based. The settings on record: ATCC 29212. The method, then:
as §1, §2, §3, §4, §5, §6, §7

Assay [4] deals with Enterococcus faecalis ATCC 700802 (V583 VRE). In kind it is cell-based. The conditions noted are these: ATCC 700802. How it is done:
as §1, §2, §3, §4, §5, §6, §7

Assay [5] relates to Enterococcus faecium ATCC 51559 (VRE). In kind it is cell-based. The conditions noted are these: ATCC 51559. The method, then:
as §1, §2, §3, §4, §5, §6, §7

In assay [6] the test system is Escherichia coli ATCC 25922 (QC). The class given is cell-based. The conditions noted are these: ATCC 25922. How it is done: as §1, §2, §3, §4, §5, §6, §7
For assay [7], the system named is Escherichia coli ATCC 35218 (ESBL). In kind it is cell-based. The settings on record: ATCC 35218. The method, then:
as §1, §2, §3, §4, §5, §6, §7

The subject of assay [8] is Escherichia coli ATCC BAA-2471 (NDM-1). In kind it is cell-based. The conditions noted are these: ATCC BAA-2471. How it is done:
as §1, §2, §3, §4, §5, §6, §7

Assay [9] relates to Klebsiella pneumoniae ATCC BAA-1705 (KPC). In kind it is cell-based. The conditions noted are these: ATCC BAA-1705. The method, then: as §1, §2, §3, §4, §5, §6, §7
In assay [10] the test system is Pseudomonas aeruginosa ATCC 27853 (non-MDR; QC). The class given is cell-based. The conditions noted are these: ATCC 27853. The method, then:
as §1, §2, §3, §4, §5, §6, §7

The test system of assay [11] is Pseudomonas aeruginosa ATCC BAA-2109 (MDR). In kind it is cell-based. The conditions noted are these: ATCC BAA-2109. The method, then: as §1, §2, §3, §4, §5, §6, §7
Assay [12] concerns Staphylococcus aureus ATCC 29213 (MSSA; QC). The class given is cell-based. The conditions noted are these: ATCC 29213. How it is done:
as §1, §2, §3, §4, §5, §6, §7

Assay [13] relates to Staphylococcus aureus ATCC 43300 (MRSA). The class given is cell-based. The settings on record: ATCC 43300. How it is done:
as §1, §2, §3, §4, §5, §6, §7

For assay [14], the system named is Staphylococcus aureus NRS382 (USA100; HA-MRSA). The class given is cell-based. The conditions noted are these: USA100. The method, then: as §1, §2, §3, §4, §5, §6, §7
The subject of assay [15] is Streptococcus pneumoniae ATCC 49619 (QC). In kind it is cell-based. The conditions noted are these: ATCC 49619. The method, then: as §1, §2, §3, §4, §5, §6, §7
The subject of assay [16] is Streptococcus pyogenes ATCC 49399. In kind it is cell-based. The settings on record: ATCC 49399. How it is done: as §1, §2, §3, §4, §5, §6, §7
Assay [17] concerns Acinetobacter baumannii ATCC BAA-1797 (MDR). As to the kind of experiment: microbe, parasite or virus in culture. The conditions noted are these: ATCC BAA-1797. The class given is cell-based. The method, then: as §1, §2, §3, §4, §5, §6, §7

Here are results for nine compounds from patent publication US20220249599A1, “TREATMENT OF IMPLANTS WITH ENGINEERED ANTIMICROBIAL AMPHIPHILIC PEPTIDES” (priority 2018, published 2022).

Ends that are not written are not given here. Where only a bound is given, the exact number is not on record here.

Take `CO[C@H]1/C=C/O[C@@]2(C)Oc3c(C)c(O)c4c(O)c(c(/C=N/N5CCN(C)CC5)c(O)c4c3C2=O)NC(=O)/C(C)=C\C=C\[C@H](C)[C@H](O)[C@@H](C)[C@@H](O)[C@@H](C)[C@H](OC(C)=O)[C@@H]1C` [Rifampin]: in the assay with S. aureus, the “Reduction of implant biofilm CFU burden (sonicate culture)” value was “comparable reduction in biofilms sonicate as compared to SEQ ID NO:1”. In addition, the “Time to development of resistance (fold MIC>10)” value in assay [1] is listed as ≤ 3 days.
In the case of VVRVVRVVVRVVRVVVRVVRV [SEQ ID NO: 8], the MIC in [2] is 32 µg/mL; in assay [3] it was 4 µg/mL; in [4], 4 µg/mL; in [5] it was 0.25 µg/mL; in assay [6] it was >32 µg/mL; in assay [7] it was >32 µg/mL. In addition, the MIC in assay [8] is >32 µg/mL; in assay [9], >32 µg/mL; in assay [10], >32 µg/mL; in assay [11], 16 µg/mL; in assay [12] it was >32 µg/mL; in [13], 32 µg/mL. Moreover, the MIC is >32 µg/mL in [14], >32 µg/mL in assay [15], 16 µg/mL in [16] and >32 µg/mL in assay [17].
Turning to IRRRIRRIRRRIRRIRRRIRR [SEQ ID NO: 3], the MIC in assay [2] was 8 µg/mL; in assay [3], 32 µg/mL; in [4] it was >32 µg/mL; in [5], 4 µg/mL; in assay [6], 4 µg/mL; in assay [7], 4 µg/mL. Besides, the MIC in [8] turned out to be 4 µg/mL; in assay [9], 32 µg/mL; in assay [10], 4 µg/mL; in assay [11] it was 2 µg/mL; in [12] it was 8 µg/mL; in assay [13], 8 µg/mL. The MIC in [14] turned out to be 8 µg/mL; in [15] it was 32 µg/mL; in [16], 16 µg/mL; in [17], 16 µg/mL.
IRRIIRRIRRIIRRIRRIIRR [SEQ ID NO: 4]: the MIC in assay [2] was 8 µg/mL; in assay [3] it was 8 µg/mL; in [4] it was 8 µg/mL; in assay [5] it was 4 µg/mL; in [6], 4 µg/mL; in assay [7] it was 8 µg/mL. For the same compound, the MIC in assay [8] is 4 µg/mL; in assay [9], 32 µg/mL; in [10] it was 8 µg/mL; in assay [11] it was 4 µg/mL; in assay [12], 8 µg/mL; in assay [13], 4 µg/mL. Also, the MIC amounted to 4 µg/mL in assay [14], 16 µg/mL in [15], 16 µg/mL in [16] and 8 µg/mL in assay [17].
Regarding VWRWVRRVWRWVRRVWRWVRR [SEQ ID NO: 5], the MIC in assay [2] came to 16 µg/mL; in assay [3] it was 16 µg/mL; in assay [4], 16 µg/mL; in assay [5], 8 µg/mL; in assay [6], 16 µg/mL; in assay [7], 16 µg/mL. In addition, the MIC is 32 µg/mL in assay [8]; >32 µg/mL in [9]; >32 µg/mL in [10]; 16 µg/mL in assay [11]; 16 µg/mL in [12]; 8 µg/mL in assay [13]. Further, the MIC in assay [14] was 8 µg/mL; in assay [15] it was 32 µg/mL; in assay [16], 32 µg/mL; in assay [17], 32 µg/mL.
Regarding VVRVVRRVVRVVRR [SEQ ID NO: 7], the MIC was >32 µg/mL in assay [2]; >32 µg/mL in assay [3]; >32 µg/mL in assay [4]; 16 µg/mL in assay [5]; >32 µg/mL in assay [6]; 32 µg/mL in assay [7]. Further, the MIC in [8] is 16 µg/mL; in [9] it was >32 µg/mL; in assay [10] it was >32 µg/mL; in [11], >32 µg/mL; in assay [12], >32 µg/mL; in assay [13], >32 µg/mL. The MIC is >32 µg/mL in assay [14], >32 µg/mL in assay [15], 16 µg/mL in [16] and >32 µg/mL in assay [17].
As for VWRWVRRVWRWVRR [SEQ ID NO: 6], the MIC was 0.5 µg/mL in assay [2]; 2 µg/mL in [3]; 4 µg/mL in assay [4]; 0.5 µg/mL in assay [5]; 2 µg/mL in assay [6]; 1 µg/mL in [7]. The MIC in [8] worked out at 1 µg/mL; in assay [9], 4 µg/mL; in [10], 16 µg/mL; in [11], 8 µg/mL; in assay [12], 0.5 µg/mL; in [13] it was 0.5 µg/mL. Moreover, the MIC was determined as 0.5 µg/mL in assay [14], 8 µg/mL in [15], 4 µg/mL in assay [16] and 0.5 µg/mL in assay [17].
IRRRRRRIRRRRRR [SEQ ID NO: 2]: the MIC in assay [2] was 32 µg/mL; in assay [3], >32 µg/mL; in [4], >32 µg/mL; in assay [5] it was 16 µg/mL; in assay [6] it was 16 µg/mL; in [7], 16 µg/mL. Also, the MIC in assay [8] was 32 µg/mL; in assay [9], >32 µg/mL; in [10], >32 µg/mL; in assay [11] it was 8 µg/mL; in assay [12] it was 16 µg/mL; in assay [13], 16 µg/mL. Besides, the MIC in assay [14] is 8 µg/mL; in assay [15] it was >32 µg/mL; in [16] it was 32 µg/mL; in assay [17] it was >32 µg/mL.
Turning to LL-37 [LL37], in [1], the “Time to development of resistance (fold MIC>10)” value amounted to 9 days.
